Reference: patent publication US5310667A (priority 1989, dated 1994)

Tests used:
[1] = test system: tobacco plants transformed with wild-type EPSP synthase gene; assay: Relative effect of glyphosate spraying on transformed tobacco; type: in vivo, Nicotiana tobacam CV H425; conditions: WT, 0 total kill, 10 no effect, best transformant
Text: A culture of A. tumefaciens cells containing pMON567/pGV3111-SE was contacted with leaf disks taken from tobacco plants (Nicotiana tobacam CV H425) as described by Horsch (1985). The Agrobacterium cells inserted the variant EPSP synthase gene into the chromosomes of the plant cells. Plant cells resistant to kanamycin were selected and regenerated into differentiated plants by the procedure of Horsch (1985).
Progeny of these plants were propagated and grown to a rosette diameter of about 10 cm corresponding to a plant age of about four weeks. The plants were sprayed with glyphosate at levels corresponding to 0.4, 2.0 and 3.6 pounds acid equiv./acre. The effect of glyphosate on the transformed plants were scored at 7, 14 and 28 days. The effect was translated to a numerical scale of 0-10 in which 0 represents total kill and 10 is the normal, unsprayed plant. […] The values represent the best transformant for both wild-type EPSP synthase and glyphosate-tolerant EPSP synthase genes.

[2] = target: wild type petunia EPSP synthase (Petunia hybrida, UniProt P11043); assay: EPSP synthase kinetic constants (appKi glyphosate, appKm PEP); type: biochemical
[3] = target: T1, petunia EPSP synthase glycine (101) to alanine variant (Petunia hybrida, UniProt P11043, G173A); assay: as above; type: biochemical
T1 construct: made in house; host or cells: E. coli
Experimental: To an assay mix (40 μl) containing shikimate-3-phosphate (2 mM), ^14 C-phosphoenolpyruvate (1 mM, 1.2 mCi/mmol), ammonium molybdate (0.1 mM), potassium fluoride (5 mM) in 50 mM HEPES-KOH, pH 7, was added the extract and incubated at 25° C. for 2 mins. The reaction was quenched by the addition of 50 μl of 50 μl of 90% ethanol/0.1M acetic acid, pH 4.5. 70 μl of the reaction mixture was loaded on a SynchroPak AX100 HPLC column (0.4×25 cm) and the column was eluted with 0.5M potassium phosphate, pH 5.5 at 1 ml/min. The radioactivity of the eluent was monitored using a Radiomatic Flo-One Beta Instrument. (Radiomatics, Fla.). The EPSP synthase activity was determined by measurement of the conversion of ^14 C-PEP to ^14 C-EPSP synthase, both of which are resolved under the above conditions of chromatography. The protein content of the extract was determined by the method of Bradford (Biorad Labs, Calif.). The specific activity of the extract is expressed as nanomoles of EPSP synthase formed/min/mg protein.
Kinetic constants (appKm PEP and appKi glyphosate) were determined for EPSP synthase as described below. Substrate kinetic parameters were determined at pH 7.0 in 50 mM HEPES (N-[2-hydroxyethyl]piperazine-N'-[2-ethanesulfonic acid]) buffer in the presence of 2 mM S3P and varying amounts of ^14 C-PEP (10 μM-400 μM), for 2.0 minutes at 25° C. Reactions were quenched with 100 mM Na Acetate in ethanol, pH 4.5, centrifuged and analyzed for product EPSP formation by HPLC with flow radioactivity detection. HPLC conditions were 0.35 MKPi, pH 6.5, on a Synchropak AX100 column at 1.0 ml/min.

[4] = test system: E. coli SR481 (aroA-) carrying pMON8105; assay: Growth on minimal medium containing glyphosate; type: cell-based
Text: (§1) Chromosomal DNA isolated from the E. coli strain SR20 (GM42 hfr, his-, dam3-) was digested completely with MboI. The MboI fragments were cloned into the BglII site of plasmid pMON9564. The BglII site is in a multilinker located upstream of the promoterless petunia EPSPS coding sequence which had been tailored for expression in E. coli. The ligation mixture was used to transform E. coli strain SR481, the aroA- variant lacking endogenous EPSPS activity. Forty-one colonies were obtained which contained MboI fragments with sufficient promoter activity to express the Petunia EPSPS cDNA, complementing the aroA defect in SR481 and supporting cell growth on minimal medium. The 41 colonies were streaked individually onto MOPS minimal medium containing glyphosate at 1, 5, 10, 15 and 20 μM concentrations. The amount of cell growth on increasing concentrations of glyphosate was used as a measure of the relative promoter strength of each MboI fragment expressing the petunia EPSPS coding sequence. To further characterize each of the MboI promoter fragments, plasmid miniprep DNA was prepared by the alkaline lysis method from each of the 41 colonies and was digested individually with EcoRI, BamHI, HindIII, ClaI and NcoI. Those restriction enzymes were chosen because they cut within, or flank the petunia EPSPS coding sequence and would be used for mobilizing mutagenized fragments. Therefore, ideal promoter fragments would not contain restriction sites for any of those enzymes. There were 8 MboI fragments with varying degrees of promoter activity which lacked restriction sites for the enzymes listed above. Two of them, pMON8105 and pMON8143, were selected for further characterization. Both plasmids complemented the aroA defect and supported the growth of SR481 on minimal medium containing up to 1 mM (pMON8105) and 20 mM (pMON8143) glyphosate.

[5] = test system: E. coli SR481 (aroA-) carrying pMON8143; assay: Growth on minimal medium containing glyphosate; type: cell-based
Text: as §1

[6] = test system: bacteria harboring pMON342 or pMON9566 (double pL promoter, petunia EPSP synthase); assay: Glyphosate tolerance of bacteria in growth media; type: cell-based, E. coli; conditions: very high expression of the enzyme
Experimental: The double pL promoter used to express the petunia EPSP synthase in pMON342 and pMON9566 leads to a very high level of expression of the enzyme. The enzyme is present at such high concentration that bacteria harboring either of these plasmids are tolerant to very high levels of glyphosate ([…]) in growth media, even though the enzyme produced by pMON342 is the wild type form. […] A plasmid for identifying such a promoter was constructed as follows: pMON9544, the precursor to pMON342, was digested with BamHI to remove the pL promoters, and was recircularized by ligation resulting in pMON362. The EcoRI fragment of pMON9556 containing the 3'-cDNA portion of the petunia EPSPS cDNA was then inserted into the EcoRI site of this plasmid reconstituting the entire coding sequence. The resulting plasmid, pMON364 is identical to pMON342 except that there is no promoter 5' of the EPSP synthase coding sequence.

T1 sequence (P11043 73-516 G173A): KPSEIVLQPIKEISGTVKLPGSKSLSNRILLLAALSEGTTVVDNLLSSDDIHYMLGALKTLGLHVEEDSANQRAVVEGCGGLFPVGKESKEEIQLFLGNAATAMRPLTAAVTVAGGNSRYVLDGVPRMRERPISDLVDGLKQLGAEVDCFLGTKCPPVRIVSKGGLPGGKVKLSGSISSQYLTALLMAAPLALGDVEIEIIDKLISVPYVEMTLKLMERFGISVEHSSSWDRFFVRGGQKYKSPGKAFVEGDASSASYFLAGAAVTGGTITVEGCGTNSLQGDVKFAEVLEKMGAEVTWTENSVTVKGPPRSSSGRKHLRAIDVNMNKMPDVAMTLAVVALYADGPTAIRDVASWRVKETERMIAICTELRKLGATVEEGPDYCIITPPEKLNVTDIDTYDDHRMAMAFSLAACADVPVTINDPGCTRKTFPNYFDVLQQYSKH
wild type petunia EPSP synthase, sequence (P11043 73-516): as the sequence (P11043 73-516 G173A) above, with A101G counted along it

O=C(O)CNCP(=O)(O)O [glyphosate, N-phosphonomethylglycine]
Relative Effect of Glyphosate ([1]; 0.4 pounds/Acre, day 7): 6.0
Relative Effect of Glyphosate ([1]; 0.4 pounds/Acre, day 14): 7.0
Relative Effect of Glyphosate ([1]; 0.4 pounds/Acre, day 28): 9.0
Relative Effect of Glyphosate ([1]; 2.0 pounds/Acre, day 7): 5.0
Relative Effect of Glyphosate ([1]; 2.0 pounds/Acre, day 14): 1.8
Relative Effect of Glyphosate ([1]; 2.0 pounds/Acre, day 28): 0.8
Relative Effect of Glyphosate ([1]; 3.6 pounds/Acre, day 7): 5.0
Relative Effect of Glyphosate ([1]; 3.6 pounds/Acre, day 14): 1.7
Relative Effect of Glyphosate ([1]; 3.6 pounds/Acre, day 28): 0.8
Ki [2]: 0.4 µM
Ki [3]: 2000 µM
Ki/Km ratio ([3]; Ki glyphosate / Km PEP): 10.0
growth on 1 mM glyphosate ([4]; 1 mM glyphosate): could not support the growth
glyphosate concentration up to which growth on minimal medium is supported ([4]; minimal medium): up to 1 mM
glyphosate concentration up to which growth on minimal medium is supported [5]: ≤ 20 mM
level of glyphosate tolerated in growth media [6]: > 50 µM
